For orientation: IC50 means the concentration needed to halve the response being measured.

This is an account of results in patent US12570675B2, “Boronic acid compounds” (LG CHEM, LTD., priority 2020, dated 2026).

Molecules are shown by their SMILES.

In the experiment the target is Proteasome chymotrypsin-like activity (S26 protein from RPMI8226 cells) (Homo sapiens, UniProt P28074). It is filed as biochemical. To be noted: S26 protein from RPMI8226 cell extract 2 ug/well, substrate 20 uM, 37° C., 90 minutes; read-out: Proteasome chymotrypsin-like activity inhibition IC50. The procedure:
The abilities to inhibit the proteasome activity of the compounds described in the Examples of the present invention and boronic acid drugs were evaluated as follows.
RPMI8226 cells, which is a multiple myeloma cell line, were cultured and then separated by a centrifuge, and washed twice with phosphate buffered saline (PBS). 20 mM of a tris-HCl (pH 8.0) buffer solution was added to the washed cells, and the cells were disrupted by a homogenizer and centrifuged to obtain S26 protein from the supernatant. Suc-Leu-Leu-Val-Tyr-AMC, for a fluorogenic substrate for the chymotrypsin-like activity of the proteasome, and Z-Leu-Leu-Glu-AMC, for a fluorogenic substrate for the caspase-like activity, were purchased from Calbiochem, EMD Millipore and used. Into each well of a 96-well plate (opaque, black round bottom), 20 ul of the S26 protein (final RPMI8226 cell extract concentration: 2 ug/well), 10 ul of S26 proteasome inhibitor serially diluted from 10 uM (final DMSO concentration: 0.5%), and 20 ul of the fluorogenic substrate for the proteasome chymotrypsin-like or caspase-like activity (final concentration: 20 uM) were added and mixed and allowed to react in a 37° C. incubator for 90 minutes. The fluorescence of the fluorogenic substrate was measured by FlexStation II Fluorometer (Molecular Devices). The fluorescence inhibited by the compound diluted at each concentration was measured as the relative percentage value for the amount obtained from the treatment only with the S26 protein and the fluorogenic substrate. IC50 (inhibitory concentration 50) was expressed in terms of a concentration that inhibits 50% of the maximum fluorescence induced by the fluorogenic substrate.

Proteasome chymotrypsin-like activity (S26 protein from RPMI8226 cells), sequence (P28074 60-263 limits assumed): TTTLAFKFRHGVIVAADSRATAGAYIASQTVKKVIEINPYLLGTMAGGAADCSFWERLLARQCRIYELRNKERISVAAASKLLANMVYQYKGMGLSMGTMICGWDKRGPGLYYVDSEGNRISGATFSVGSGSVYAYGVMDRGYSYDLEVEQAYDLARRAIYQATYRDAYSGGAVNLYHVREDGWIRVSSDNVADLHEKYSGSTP

With `Cc1nn(C(C)C)cc1C(=O)NCC1=NOC(Cc2ccccc2)(C(=O)N[C@@H](CC(C)C)B(O)O)C1` (stereo partly drawn) [Example 206, ((1R)-1-(5-benzyl-3-((1-isopropyl-3-methyl-1H-pyrazol-4-carboxamido)methyl)-4,5-dihydroisoxazol-5-carboxamido)-3-methylbutyl)boronic acid], the concentration for half-maximal inhibition (IC50) was under 10 nM.

On to `CC(C)C[C@H](NC(=O)C1CC(c2ccnc3ccccc23)=NO1)B(O)O` (stereo partly drawn) [Example 23, ((1R)-3-methyl-1-(3-(quinolin-4-yl)-4,5-dihydroisoxazol-5-carboxamido)butyl)boronic acid], for which the IC50 was under 250 nM. Consider `CC(C)[C@H](NC(=O)C1(Cc2ccccc2)CC(CNC(=O)c2cc(Cl)ccc2Cl)=NO1)B(O)O` (stereo partly drawn) [Example 315, ((1R)-1-(5-benzyl-3-((2,5-dichlorobenzamido)methyl)-4,5-dihydroisoxazol-5-carboxamido)-2-methylpropyl)boronic acid], for which the IC50 was under 10 nM.

On to `CC(C)C[C@H](NC(=O)C1(Cc2ccccc2)CC(CNC(=O)c2c(Cl)cnn2C)=NO1)B(O)O` (stereo partly drawn) [Example 184, ((1R)-1-(5-benzyl-3-((4-chloro-1-methyl-1H-pyrazol-5-carboxamido)methyl)-4,5-dihydroisoxazol-5-carboxamido)-3-methylbutyl)boronic acid], for which the IC50 was under 10 nM. With `CC(C)C[C@H](NC(=O)C1CC(c2cccc(OC(F)(F)F)c2)=NO1)B(O)O` (stereo partly drawn) [Example 37, ((1R)-3-methyl-1-(3-(3-(trifluoromethoxy)phenyl)-4,5-dihydroisoxazol-5-carboxamido)butyl)boronic acid], the IC50 was under 500 nM. As for `CC(C)C[C@H](NC(=O)C1CC(c2cccc(-c3ccccc3)c2)=NO1)B(O)O` (stereo partly drawn) [Example 20, ((1R)-1-(3-([1,1′-biphenyl]-3-yl)-4,5-dihydroisoxazol-5-carboxamido)-3-methylbutyl)boronic acid], the IC50 is under 250 nM. With `CC(C)C[C@H](NC(=O)C1(Cn2cccn2)CC(CNC(=O)c2nccc3ccccc23)=NO1)B(O)O` (stereo partly drawn) [Example 128, ((1R)-1-(5-((1H-pyrazol-1-yl)methyl)-3-((isoquinolin-1-carboxamido)methyl)-4,5-dihydroisoxazol-5-carboxamido)-3-methylbutyl)boronic acid], the IC50 is under 10 nM. Consider `CC[C@H](NC(=O)C1(Cc2ccccc2)CC(CNC(=O)c2cccn3ccnc23)=NO1)B(O)O` (stereo partly drawn) [Example 297, ((1R)-1-(5-benzyl-3-((imidazo[1,2-a]pyridin-8-carboxamido)methyl)-4,5-dihydroisoxazol-5-carboxamido)propyl)boronic acid], for which the IC50 was under 25 nM.

As to `CC(C)C[C@H](NC(=O)C1CC(c2ccc(-c3ccccc3)nc2)=NO1)B(O)O` (stereo partly drawn) [Example 32, ((1R)-3-methyl-1-(3-(6-phenylpyridin-3-yl)-4,5-dihydroisoxazol-5-carboxamido)butyl)boronic acid], the IC50 was under 100 nM.

Consider `N#Cc1cccc(C(=O)NCC2=NOC(Cc3ccccc3)(C(=O)N[C@@H](Cc3ccccc3)B(O)O)C2)c1` (stereo partly drawn) [Example 317, ((1R)-1-(5-benzyl-3-((3-cyanobenzamido)methyl)-4,5-dihydroisoxazol-5-carboxamido)-2-phenylethyl)boronic acid], for which the IC50 was under 10 nM.

For the compound `CC(C)C[C@H](NC(=O)C1(Cc2ccccc2)CC(CNC(=O)c2cccc3nccn23)=NO1)B(O)O` (stereo partly drawn) [Example 301], the IC50 was under 10 nM. On to `CC(C)C[C@H](NC(=O)C1CC(c2cccc(-c3ccccn3)c2)=NO1)B(O)O` (stereo partly drawn) [Example 34, ((1R)-3-methyl-1-(3-(3-(pyridin-2-yl)phenyl)-4,5-dihydroisoxazol-5-carboxamido)butyl)boronic acid], for which the concentration for half-maximal inhibition (IC50) is under 100 nM. On to `O=C(N[C@@H](Cc1ccccc1)B(O)O)C1(Cc2ccccc2)CC(COc2ccccc2)=NO1` (stereo partly drawn) [Example 255, ((1R)-1-(5-benzyl-3-(phenoxymethyl)-4,5-dihydroisoxazol-5-carboxamido)-2-phenylethyl)boronic acid], for which the IC50 is under 25 nM. `CC(C)C[C@H](NC(=O)C1(Cc2ccccc2)CC(CNC(=O)c2cccc(-c3ccccc3)n2)=NO1)B(O)O` (stereo partly drawn) [Example 96, ((1R)-1-(5-benzyl-3-((6-phenylpicolinamido)methyl)-4,5-dihydroisoxazol-5-carboxamido)-3-methylbutyl)boronic acid]: the IC50 was under 10 nM. Regarding `CC(C)C[C@H](NC(=O)C1(Cc2ccccc2)CC(COc2ccccc2)=NO1)B(O)O` (stereo partly drawn) [Example 254], the IC50 is under 10 nM. Consider `Cc1cccc(CC2(C(=O)N[C@@H](CC(C)C)B(O)O)CC(CNC(=O)c3ccnn3C(C)C)=NO2)c1` (stereo partly drawn) [Example 242, ((1R)-1-(3-((1-isopropyl-1H-pyrazol-5-carboxamido)methyl)-5-(3-methylbenzyl)-4,5-dihydroisoxazol-5-carboxamido)-3-methylbutyl)boronic acid], for which the IC50 was under 10 nM. As for `CC(C)C[C@H](NC(=O)C1(Cc2ccccc2C(F)(F)F)CC(CNC(=O)c2nccc3ccccc23)=NO1)B(O)O` (stereo partly drawn) [Example 167, ((1R)-1-(3-((isoquinolin-1-carboxamido)methyl)-5-(2-(trifluoromethyl)benzyl)-4,5-dihydroisoxazol-5-carboxamido)-3-methylbutyl)boronic acid], the IC50 was under 10 nM. In the case of `CC(C)C[C@H](NC(=O)C1CC(c2cc3ccccc3cn2)=NO1)B(O)O` (stereo partly drawn) [Example 22, ((1R)-1-(3-(isoquinolin-3-yl)-4,5-dihydroisoxazol-5-carboxamido)-3-methylbutyl)boronic acid], the IC50 is under 250 nM.

Consider `CC(C)C[C@H](NC(=O)C1ON=C(CNC(=O)c2nccc3ccccc23)C1C)B(O)O` (stereo partly drawn) [Example 65, ((1R)-1-(3-((isoquinolin-1-carboxamido)methyl)-4-methyl-4,5-dihydroisoxazol-5-carboxamido)-3-methylbutyl)boronic acid], for which the half-inhibitory concentration (IC50) was under 250 nM. With `CC(C)C[C@H](NC(=O)C1CC([C@H](CC(C)C)NC(=O)Cc2ccccc2)=NO1)B(O)O` (stereo partly drawn) [Example 105, ((1R)-3-methyl-1-(3-((S)-3-methyl-1-(2-phenylacetamido)butyl)-4,5-dihydroisoxazol-5-carboxamido)butyl)boronic acid], the IC50 is under 100 nM. For `COC[C@@H](NC(=O)c1nccc2ccccc12)C1=NOC(Cc2ccccc2)(C(=O)N[C@@H](CC(C)C)B(O)O)C1` (stereo partly drawn) [Example 185, ((1R)-1-(5-benzyl-3-((S)-1-(isoquinolin-1-carboxamido)-2-methoxyethyl)-4,5-dihydroisoxazol-5-carboxamido)-3-methylbutyl)boronic acid], the IC50 was under 10 nM.

Turning to `CC(C)C[C@H](NC(=O)C1(Cc2ccccc2)CC(CNC(=O)CCc2ccccc2)=NO1)B(O)O` (stereo partly drawn) [Example 110, ((1R)-1-(5-benzyl-3-((3-phenylpropanamido)methyl)-4,5-dihydroisoxazol-5-carboxamido)-3-methylbutyl)boronic acid], the IC50 is under 25 nM.

As to `CC(C)C[C@H](NC(=O)C1CC(c2ccc(-c3ccccn3)cc2)=NO1)B(O)O` (stereo partly drawn) [Example 26, ((1R)-3-methyl-1-(3-(4-(pyridin-2-yl)phenyl)-4,5-dihydroisoxazol-5-carboxamido)butyl)boronic acid], the IC50 is under 50 nM.

As for `CC(C)C[C@H](NC(=O)C1(Cc2ccccc2)CC(CNC(=O)c2cnnc3ccccc23)=NO1)B(O)O` (stereo partly drawn) [Example 165, ((1R)-1-(5-benzyl-3-((cinnolin-4-carboxamido)methyl)-4,5-dihydroisoxazol-5-carboxamido)-3-methylbutyl)boronic acid], the IC50 was under 10 nM. For `CC(C)C[C@H](NC(=O)[C@]1(Cc2ccccc2)CC(c2cccc(C(C)(C)C)c2)=NO1)B(O)O` [Example 24, ((R)-1-((S)-5-benzyl-3-(3-(tert-butyl)phenyl)-4,5-dihydroisoxazol-5-carboxamido)-3-methylbutyl)boronic acid], the IC50 is under 500 nM.

Regarding `COC[C@H](NC(=O)c1cccc(C)n1)C1=NOC(Cc2ccccc2)(C(=O)N[C@@H](CC(C)C)B(O)O)C1` (stereo partly drawn) [Example 195, ((1R)-1-(5-benzyl-3-((R)-2-methoxy-1-(6-methylpicolinamido)ethyl)-4,5-dihydroisoxazol-5-carboxamido)-3-methylbutyl)boronic acid], the half-inhibitory concentration (IC50) was under 50 nM. For the compound `CC(C)C[C@H](NC(=O)C1(Cc2ccccc2)CC(CNC(=O)c2cccc(N(C)C)c2)=NO1)B(O)O` (stereo partly drawn) [Example 321], the IC50 was under 10 nM. As to `CC[C@H](NC(=O)C1(Cc2ccccc2)CC(CNC(=O)c2cc(Cl)ccc2Cl)=NO1)B(O)O` (stereo partly drawn) [Example 314, ((1R)-1-(5-benzyl-3-((2,5-dichlorobenzamido)methyl)-4,5-dihydroisoxazol-5-carboxamido)propyl)boronic acid], the IC50 was under 10 nM.

Regarding `CC(C)C[C@H](NC(=O)C1(Cc2ccccc2)CC(CNC(=O)c2cccn3cnnc23)=NO1)B(O)O` (stereo partly drawn) [Example 305], the IC50 was under 10 nM. On to `Cc1cccc(CC2(C(=O)N[C@@H](CC(C)C)B(O)O)CC(CNC(=O)c3cc(-c4ccccc4)nn3C(C)C)=NO2)c1` (stereo partly drawn) [Example 236, ((1R)-1-(3-((1-isopropyl-3-phenyl-1H-pyrazol-5-carboxamido)methyl)-5-(3-methylbenzyl)-4,5-dihydroisoxazol-5-carboxamido)-3-methylbutyl)boronic acid], for which the IC50 was under 10 nM.
